From US12459940B2, “Oxazole compound as multi-targeted inhibitor of IRAK4 and BTK” (SHANGHAI FOSUN PHARMACEUTICAL INDUSTRIAL DEVELOPMENT CO., …, priority 2019, dated 2025)

Key:
[1] = target: T1, human IRAK4 (Homo sapiens, UniProt Q9NWZ3); assay: In vitro IRAK4 kinase activity, 33P isotope-labeled kinase activity assay (Reaction Biology Corp); format: biochemical; details: 33P-ATP, 120 minutes at room temperature; read-out: IRAK4/IC50
T1 construct: purchased Reaction Biology Corp
T1 sequence (Q9NWZ3 1-460): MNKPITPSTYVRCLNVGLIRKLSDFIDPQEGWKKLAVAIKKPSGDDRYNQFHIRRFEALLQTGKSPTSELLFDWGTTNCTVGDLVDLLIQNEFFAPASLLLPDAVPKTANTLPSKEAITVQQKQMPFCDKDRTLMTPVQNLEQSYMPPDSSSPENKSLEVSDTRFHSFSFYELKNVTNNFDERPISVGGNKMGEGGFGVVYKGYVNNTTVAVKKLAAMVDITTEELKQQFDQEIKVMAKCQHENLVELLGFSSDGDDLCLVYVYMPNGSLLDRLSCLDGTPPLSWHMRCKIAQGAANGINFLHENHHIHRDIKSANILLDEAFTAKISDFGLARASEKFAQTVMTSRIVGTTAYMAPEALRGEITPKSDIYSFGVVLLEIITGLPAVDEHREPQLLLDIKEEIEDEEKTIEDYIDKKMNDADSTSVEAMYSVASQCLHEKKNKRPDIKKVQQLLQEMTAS
Description: The IC50 values were determined using ^33P isotope-labeled kinase activity assay (Reaction Biology Corp) to evaluate the inhibitory ability of the tested compounds on human IRAK4.
Buffer conditions: 20 mM Hepes (pH 7.5), 10 mM MgCl2, 1 mM EGTA, 0.02% Brij35, 0.02 mg/mL BSA, 0.1 mM Na3VO4, 2 mM DTT, 1% DMSO.
Test procedure: At room temperature, the tested compound was dissolved in DMSO to prepare a 10 mM solution for later use. The substrate was dissolved in a newly prepared buffer solution, and the tested IRAK4 kinase was added thereto and mixed evenly. The DMSO solution dissolved with the tested compound was added to the above reaction mixture mixed evenly using acoustic technique (Echo 550). After incubation for 15 minutes, ^33P-ATP was added to initiate the reaction.

[2] = tested on: TNF-α production in THP-1 cells; assay: THP-1 cytological TNFa ELISA assay (LPS-stimulated); format: cell-based; details: Homo sapiens, TNF-α in culture supernatant, 150 ng/mL LPS, 18 hours
Description: THP-1 human acute […] leukemia cells were purchased from ATCC (Cat #TIB-202) and cultured at 37° C. in 5% CO2 incubator. The composition of medium was RPMI1640 (Gibco, Cat #22400-105), and the supplementary compositions were 10% FBS (Gibco, Cat #10091148); 1% PenStrep (Gibco, Cat #15140); 0.05 mM 2-Mercaptoethanol (Sigma, Cat #M6250).
TNF-α Elisa kit was used to detect the content of TNF-α in cell culture supernatant samples. TNF-α was produced by stimulating THP-1 cells with 150 ng/mL LPS (Sigma, Cat #L6529).
THP-1 cells cultured normally at logarithmic growth stage were seeded in a 96-well plate (Corning #3599) at a certain concentration (1*10^5/100 μL) and then put into a cell incubator for incubation. After two hours, 16.7 μL of different concentrations of the compound to be tested (8*final concentration) were added and incubated in an incubator. After one hour, 16.7 μL of 1200 ng/mL LPS was added and incubated in an incubator. After 18 hours, the culture supernatant samples were collected by centrifugation, and the content of TNF-α could be detected by TNF-α Elisa kit. Finally, OD signals (OD450-OD570) were read on envision board reader.
The OD450-OD570 signal value was converted into a percentage inhibition rate. Inhibition rate %=(ZPE−sample)/(ZPE−HPE)*100.
“HPE” refers to the OD450-OD570 signal value of the control well without LPS stimulated cells, and “ZPE” refers to the OD450-OD570 signal value of the control well with LPS stimulated cells. The IC50 value of the compound was calculated by XLFit in the excel add-in. Y=Bottom+(Top−Bottom)/(1+(IC50/X)^HillSlope). Equation: […]

[3] = tested on: OCI-LY10 human B-cell lymphoma cells; assay: OCI-LY10 cell proliferation inhibition (CellTiter-Glo); format: cell-based; details: OCI-Ly10, 72 h, treated for 3 days
Description: OCI-LY10 human B-cell lymphoma cells were cultured in a 37° C., 5% CO2 incubator. The composition of medium was IMDM (GIBCO, Cat #12440053); the supplementary compositions were 20% FBS (Hyclone, Cat #SH30084.03); 1% PenStrep (Thermo, Cat #SV30010).
The tumor cell lines OCI-LY10 and TMD8 were used to detect the effect of the compound on inhibiting tumor cell proliferation in vitro. The tumor cell line was cultured in a 37° C., 5% CO2 incubator according to the culture conditions shown, and passaged regularly, then the cells in the logarithmic growth phase were taken, counted, and spread in a 96-well plate (the cells in each well were adjusted to an appropriate concentration, a total of […] per well was added). After incubating overnight in a 37° C., 5% CO2 incubator, drugs with different concentration gradients (10 μL of drug solution was added) were added and treated for 3 days, then 50 μL of CellTiter-Glo working solution was added to each well, and the cell plate was wrapped with aluminum foil to avoid light. The culture plate was shaken on an orbital shaker for 2 minutes to induce cell lysis, and placed at room temperature for 10 minutes to stabilize the luminescence signal, then the luminescence signal was detected on the 2104 EnVision plate reader.
The Inhibition rate (IR) of the tested compound was calculated using the following formula: IR (%)=(1−(RLU compound−RLU blank control)/(RLU solvent control−RLU blank control))*100%.
The inhibition rates of different concentrations of the compounds were calculated in Excel, and then the inhibition curves were made by GraphPad Prism software and the related parameters were calculated, including the minimum inhibition rate, the maximum inhibition rate and IC50.

**Q.** For Cc1cc(-c2nc(C(=O)Nc3cn4cc(CCC(C)(C)O)nc4cc3N3CCCCC3)co2)ccn1 [WX001], which IC50 [1] is on record?
**A.** 1 nM

**Q.** And the IC50 [2]?
**A.** 124 nM

**Q.** What about the IC50 [3] of the same molecule?
**A.** 128 nM
